According to PMC4802308, “Integrating computational and chemical biology tools in the discovery of antiangiogenic small molecule ligands of FGF2 derived from endogenous inhibitors” (Scientific Reports, 2016):

Columns and labels:
FGF2 [1] = molecular target: T1, FGF2 (Homo sapiens, UniProt P09038); assay: SPR direct binding to sensorchip-immobilized FGF2; conditions: single site model, one experiment representative of two, read-out: Kd (dissociation constant) of FGF2/compound interaction
T1 construct: purchased R&D Systems, obtained through the NCI-Biological Resources Branch
T1 sequence (P09038 134-288 limits assumed): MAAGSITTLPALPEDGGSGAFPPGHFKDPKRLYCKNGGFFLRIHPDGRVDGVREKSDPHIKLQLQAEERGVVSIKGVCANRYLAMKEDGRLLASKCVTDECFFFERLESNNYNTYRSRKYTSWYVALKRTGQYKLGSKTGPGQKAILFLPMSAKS
Description: SPR measurements were performed on a BIAcore X100 instrument (GE-Healthcare, WI). FGF2 was immobilized on a CM5 sensorchip (GE-Healthcare) as described, allowing the immobilization of 7,365 resonance units (RU) (410 fmol/mm^2 of FGF-2).
Suppl. Table S2. Determination of the affinity (Kd) of the FGF2/compound interactions by
Binding parameters were calculated by the non-linear curve fitting software package BIAevaluation
3.2 using a single site model with correction for mass transfer. Dissociation constant (Kd) values
were derived from the dissociation rate/association ratio. Only sensorgrams whose fitting gave
values of X2 lower than 10 were used {Khalifa, 2001 #213}.

FGF2 [2] = molecular target: T1, FGF2; assay: Competition with biotinylated recombinant TSP-1 domain (E123CaG1) for binding to FGF2 (DELFIA); conditions: for IC50: mean ± SE of 3 experiments; for fold more active than the initial query SM27 (competition IC50): vs SM27
FGF2 [3] = molecular target: T1, FGF2; assay: as above; conditions: 5 μM
Description: Of the identified hits, 23 (Fig. 1 and Suppl. Table S1), made available from the NCI (NIH), were subjected to experimental analysis of FGF2 binding. We used an indirect assay, based on the competition of the tested molecules with the recombinant TSP-1 type III domain for binding to FGF2, an approach previously employed to analyze the FGF2/SM27 binding.
Figure 2 FGF2-binding property of the selected hits, analyzed with an indirect assay, as ability to compete with the TSP-1 fragment E123CaG1 (comprising the type III repeats domain) for FGF2 binding, as described in Methods. Binding of the biotinylated recombinant domain to FGF2 in the presence or absence of each molecule (5 μM). Data are the percentage of control binding, mean and SE of 3 experiments performed in triplicate. *p < 0.05 compared to control (ANOVA followed by Bonferroni test).
DELFIA® Microtitration plates and reagents were from PerkinElmer. Plates were coated overnight at 4 °C with FGF2 (0.1 μg in 40 μl /well PBS). After washing, non-specific binding sites were saturated by a 30 minute incubation with PBS 1% BSA. The biotin-labeled recombinant TSP-1 fragment (10 nM) was added in 40 μl PBS 1% BSA with or without the indicated concentration of small molecules, and incubated for 3 h at room temperature. The plates were washed with PBS 0.1% BSA and incubated for 1 h with 100 μl/well Eu-Labeled Streptavidin 1:1000 at room temperature. After washing, plates were incubated with DELFIA® Enhancement Solution. Time resolved fluorescence was measured using a Victor[3] multilabel plate reader (PerkinElmer).

[4] = Dynamic Light Scattering (photon correlation spectroscopy) and Zeta potential analysis of aggregates in solution; type: physicochemical; conditions: for Zeta potential: 1mg/ml solution, in mV (unit assumed)
Description: Binding of 5 water-soluble compounds to FGF2 was further analyzed by surface plasmon resonance (SPR). All the compounds were able to bind FGF2 immobilized to a SPR sensorchip (Suppl. Figure S2). […] In the context of biophysical characterization of compounds, we also tested the formation of aggregates in solution by representative compounds SM.2-16, SM.2-20 and SM.2-23, using Dynamic Light Scattering, which allows measuring nanoparticle size and polydispersion index (by Photocorrelation Spectroscopy) and surface charge (Zeta potential). For all the molecules, at concentrations between 0.03 and 1 mg/ml, the hydrodynamic radius ranged from 2.1 to 2.9 nm, with polydispersity index values between 0.5 and 0.6 (Table 2): no significant variation in the hydrodynamic radius was observed upon decreasing the concentrations, typically indicative of a non-aggregated state. Zeta potential values were strongly negative (indicative of molecule dissociation), ranging from −48 to −52 (Table 2). These findings therefore indicate that the solutions are fairly monodispersed, containing mainly single, charged molecules.
The Photon correlation spectroscopy (PCS) and the Zeta Potential (Zp) values were measured using the Zetasizer Nano ZS (Malvern, Worcestshire, UK), as detailed in Supplementary Material. Data were analyzed by Zetasizer software, version 7.11 (Malvern, Worcestshire, UK).
Photon correlation spectroscopy and Zeta Potential analysis. Photon correlation spectroscopy (PCS) and the Zeta Potential (Zp) values were measured using the Zetasizer Nano ZS (Malvern, Worcestshire, UK) with a fixed 173° scattering angle and a 633 -nm-helium-neon-laser. Data were analyzed by Zetasizer software, version 7.11 (Malvern, Worcestshire, UK). The set up temperature […]
Samples were dissolved in 1 ml of deionized water with 1% HBSS (Hanks’ Balanced Salt solution) to obtain a concentration of about 3mg/ml. For PCS experiments the solution was further diluted with HBSS to the indicated concentration, transferred to a disposable folded capillary cell at room temperature and analyzed 10’ minutes post-diluting.
For Zp measurements, 1mg/ml solution of the compounds were used. Due to the high conductivity of buffer solution precluding electrophoretic mobility measurements, about 3mg of samples were solubilized in 1% HBSS and diluted with suitable volume of deionized water. The solution, was transferred to a disposable folded capillary cell (Malvern, Worcestshire, UK) at room temperature and analyzed 10’ post-diluting. […]

[5] = system: FGF2-induced vessels sprouting, murine aortic rings; assay: Aortic rings assay (FGF2-induced vessels sprouting, 3D Matrigel); design: species or system C57BL/6 mice; conditions: FGF2 30 ng/ml, small molecules 100 μM
Description: Figure 4 Biological activity of the selected hits. (A) Endothelial cell proliferation. BAEC were exposed to FGF2 (5 ng/ml) with increasing concentrations of molecules (3–80 μM). After 72 h, cells were stained and proliferation measured as absorbance. Data are the percentage of control proliferation (in absence of molecules), mean of value from 2 experiments performed in triplicate. (B–D) Aortic ring assay. Sections of murine aortas were embedded in Matrigel, in the presence of FGF2 (30 ng/ml) and the indicated small molecule. The formation of capillary structures sprouting from the rings was analyzed after 7 and 11 days as described in Methods, and the angiogenic response expressed as area covered by the sprouting structures (arbitrary units, mean and SE, n ≥ 6). (B) Antiangiogenic activity of the small molecules (100 μM). (C) Examples of time-dependent and dose-dependent effect of two compounds (SM.2–20 and SM.2–23), tested at 100 (diamond), 50 (circle) and 25 μM (triangle) compared to control (black squares). (D) Representative pictures of sprouting from control and SM.2–23 treated aortic sections. Original magnification, 20x. (E,F) Chorioallantoic membrane assay. FGF2 (200 ng) was administered in the absence or presence of the indicated compound (0.5 μg) on day 8 (n = 10). (E) Angiogenic response is evaluated 4 days later, and expressed as number of vessels entering the sponge (mean and SD). (F) Representative pictures are shown. Original magnification, 50x.
Thoracic aortas were removed from mice, cleaned of perivascular adipose tissue and cut into 1 mm segments. Matrigel (75 μl, BD Biosciences) was added to 96 well plates, and allowed to gellify at 37 °C for 30 min. Aortic sections were added to the wells, and covered with a second layer of Matrigel and DMEM 5% FCS containing FGF2 (30 ng/ml) and the indicated concentration of the compounds. The formation of capillary structures sprouting from the rings was analyzed after 4, 7 and 11 days with an inverted-phase contrast microscope (IX70; Olympus). Images were analyzed with ImageJ 1.48, and the angiogenic response expressed as area covered by the sprouting structures (arbitrary units), substracted the area of the aortic section.

| Kd (FGF2 [1]) [nM] | IC50 (FGF2 [2]) [nM] | prevention of FGF2/TSP-1 binding (first screening) (FGF2 [3]) | Hydrodynamic Radius ([4]; 0.03125 mg/ml) [nm] | PdI (polydispersion index) ([4]; 0.03125 mg/ml) | Hydrodynamic Radius ([4]; 0.0625 mg/ml) [nm] | PdI (polydispersion index) ([4]; 0.0625 mg/ml) | Hydrodynamic Radius ([4]; 0.125 mg/ml) [nm] | PdI (polydispersion index) ([4]; 0.125 mg/ml) | Hydrodynamic Radius ([4]; 0.25 mg/ml) [nm] | PdI (polydispersion index) ([4]; 0.25 mg/ml) | Hydrodynamic Radius ([4]; 0.5 mg/ml) [nm] | PdI (polydispersion index) ([4]; 0.5 mg/ml) | Hydrodynamic Radius ([4]; 1 mg/ml) [nm] | PdI (polydispersion index) ([4]; 1 mg/ml) | Zeta potential [4] | fold more active than the initial query SM27 (competition IC50) (FGF2 [2]) | SMILES | inhibition of FGF2-induced vessels sprouting [5] |
| --- | --- | --- | --- | --- | --- | --- | --- | --- | --- | --- | --- | --- | --- | --- | --- | --- | --- | --- |
| 335 | 3900 ± 230 | – | – | – | – | – | – | – | – | – | – | – | – | – | – | – | O=C(Nc1ccc2cc(S(=O)(=O)O)cc(O)c2c1)Nc1ccc2cc(S(=O)(=O)O)cc(O)c2c1 [SM27, 6,6'-(carbonylbis(azanediyl))bis(4-hydroxynaphthalene-2-sulfonic acid), reference compound] | – |
| – | – | lost | – | – | – | – | – | – | – | – | – | – | – | – | – | – | O=C(Nc1ccc2cc(S(=O)(=O)O)cc(S(=O)(=O)O)c2c1)Nc1ccc2cc(S(=O)(=O)O)cc(S(=O)(=O)O)c2c1 [SM.2–11, 7,7'-(carbonylbis(azanediyl))bis(naphthalene-1,3-disulfonic acid)] | – |
| – | – | reduced activity | – | – | – | – | – | – | – | – | – | – | – | – | – | – | O=C(Nc1ccc2c(O)c(/N=N/c3ccccc3)c(S(=O)(=O)O)cc2c1)Nc1ccc2c(O)c(/N=N/c3ccccc3)c(S(=O)(=O)O)cc2c1 [SM.2–12, 4-hydroxy-7-(3-(5-hydroxy-6-((E)-phenyldiazenyl)-7-sulfonaphthalen-2-yl)ureido)-3-((E)-phenyldiazenyl)naphthalene-2-sulfonic acid] | – |
| 125 | 590 ± 90 | – | 2.140 | 0.495 | 2.364 | 0.742 | 2.149 | 0.452 | 2.511 | 0.663 | 2.265 | 0.533 | 2.283 | 0.695 | −48.0 | 6–11 fold | COc1ccccc1/N=N/c1c(S(=O)(=O)O)cc2cc(NC(=O)Nc3ccc4c(O)c(/N=N/c5ccc6cc(S(=O)(=O)O)ccc6c5N)c(S(=O)(=O)O)cc4c3)ccc2c1O [SM.2–16, 3-((E)-(1-amino-6-sulfonaphthalen-2-yl)diazenyl)-4-hydroxy-7-(3-(5-hydroxy-6-((E)-(2-methoxyphenyl)diazenyl)-7-sulfonaphthalen-2-yl)ureido)naphthalene-2-sulfonic acid] | significantly inhibited |
| – | 350 ± 30 | – | – | – | – | – | – | – | – | – | – | – | – | – | – | 6–11 fold | CC(=O)Nc1ccc(/N=N/c2c(S(=O)(=O)O)cc3cc(NC(=O)Nc4ccc5c(O)c(/N=N/c6ccccc6)c(S(=O)(=O)O)cc5c4)ccc3c2O)cc1 [SM.2–19, 3-((E)-(4-acetamidophenyl)diazenyl)-4-hydroxy-7-(3-(5-hydroxy-6-((E)-phenyldiazenyl)-7-sulfonaphthalen-2-yl)ureido)naphthalene-2-sulfonic acid] | not |
| 318 | 500 ± 110 | – | 2.186 | 0.523 | 2.159 | 0.658 | 2.172 | 0.635 | 2.480 | 0.789 | 2.571 | 0.518 | 2.878 | 0.595 | −50.2 | 6–11 fold | Cc1ccccc1/N=N/c1c(S(=O)(=O)O)cc2cc(NC(=O)Nc3ccc4c(O)c(/N=N/c5ccc6cc(S(=O)(=O)O)ccc6c5)c(S(=O)(=O)O)cc4c3)ccc2c1O [SM.2–20, 4-hydroxy-7-(3-(5-hydroxy-7-sulfo-6-((E)-(6-sulfonaphthalen-2-yl)diazenyl)naphthalen-2-yl)ureido)-3-((E)-o-tolyldiazenyl)naphthalene-2-sulfonic acid] | significantly inhibited |
| 39 | 420 ± 90 | – | – | – | – | – | – | – | – | – | – | – | – | – | – | 6–11 fold | Cc1cccc(/N=N/c2c(S(=O)(=O)O)cc3cc(NC(=O)Nc4ccc5c(O)c(/N=N/c6ccc7cc(S(=O)(=O)O)ccc7c6)c(S(=O)(=O)O)cc5c4)ccc3c2O)c1 [SM.2–22, 4-hydroxy-7-(3-(5-hydroxy-7-sulfo-6-((E)-(6-sulfonaphthalen-2-yl)diazenyl)naphthalen-2-yl)ureido)-3-((E)-m-tolyldiazenyl)naphthalene-2-sulfonic acid] | significantly inhibited |
| 93 | 530 ± 110 | – | – | – | 2.370 | 0.677 | 2.765 | 0.557 | 2.951 | 0.59 | 2.597 | 0.539 | 2.877 | 0.545 | −52.2 | 6–11 fold | Cc1ccc(/N=N/c2c(S(=O)(=O)O)cc3cc(NC(=O)Nc4ccc5c(O)c(/N=N/c6ccc7cc(S(=O)(=O)O)ccc7c6)c(S(=O)(=O)O)cc5c4)ccc3c2O)c(C)c1 [SM.2–23, 3-((E)-(2,4-dimethylphenyl)diazenyl)-4-hydroxy-7-(3-(5-hydroxy-7-sulfo-6-((E)-(6-sulfonaphthalen-2-yl)diazenyl)naphthalen-2-yl)ureido)naphthalene-2-sulfonic acid] | significantly inhibited |
